Experimental data as given in ChEMBL document CHEMBL3822408, “Synthesis and antimicrobial evaluation of novel ethyl 2-(2-(4-substituted)acetamido)-4-subtituted-thiazole-5-carboxylate derivatives” (2016).
In brackets after ≈: the same amount, converted by molar mass.

Assays:
Type in all cases: functional
Bacillus subtilis = test: Antibacterial activity against Bacillus subtilis NCIM 2063 by broth dilution method
Escherichia coli = test: Antibacterial activity against Escherichia coli NCIM 2256 by broth dilution method
Staphylococcus aureus = test: Antibacterial activity against Staphylococcus aureus NCIM 2901 by broth dilution method
Candida albicans = test: Antifungal activity against Candida albicans by broth dilution method
Aspergillus flavus = test: Antifungal activity against Aspergillus flavus by broth dilution method
Aspergillus niger = test: Antifungal activity against Aspergillus niger by broth dilution method

Row | Structure (SMILES) | MIC (Bacillus subtilis) [µg/mL] | MIC (Escherichia coli) [µg/mL] | MIC (Staphylococcus aureus) [µg/mL] | MIC (Candida albicans) [µg/mL] | MIC (Aspergillus flavus) [µg/mL] | MIC (Aspergillus niger) [µg/mL]
1 | CC(=O)c1sc(NC(=O)CN2CCC(Cc3ccccc3)CC2)nc1C | 35 (≈ 94.2 µM) | 60 (≈ 162 µM) | 50 (≈ 135 µM) | 100 (≈ 269 µM) | 50 (≈ 135 µM) | 50 (≈ 135 µM)
2 | CCOC(=O)c1sc(NC(=O)CN2CCCCC2)nc1C | 45 (≈ 145 µM) | 60 (≈ 193 µM) | 100 (≈ 321 µM) | 75 (≈ 241 µM) | 100 (≈ 321 µM) | 100 (≈ 321 µM)
3 | CCOC(=O)c1sc(NC(=O)CN2CCC(C)CC2)nc1C | 35 (≈ 108 µM) | 50 (≈ 154 µM) | 70 (≈ 215 µM) | 75 (≈ 230 µM) | 50 (≈ 154 µM) | 50 (≈ 154 µM)
4 | COC(=O)c1sc(NC(=O)CN2CCC(Cc3ccccc3)CC2)nc1C1CC1 | 29 (≈ 70.1 µM) | 29 (≈ 70.1 µM) | 28 (≈ 67.7 µM) | 25 (≈ 60.5 µM) | 12.5 (≈ 30.2 µM) | 12.5 (≈ 30.2 µM)
5 | CCOC(=O)c1sc(NC(=O)CN2CCC(Cc3ccccc3)CC2)nc1CC | 40 (≈ 96.3 µM) | 100 (≈ 241 µM) | 100 (≈ 241 µM) | 75 (≈ 180 µM) | 100 (≈ 241 µM) | 100 (≈ 241 µM)
6 | COC(=O)c1cnc(NC(=O)CN2CCC(Cc3ccccc3)CC2)s1 | 35 (≈ 93.7 µM) | 60 (≈ 161 µM) | 50 (≈ 134 µM) | 100 (≈ 268 µM) | 50 (≈ 134 µM) | 50 (≈ 134 µM)
7 | CCOC(=O)c1cnc(NC(=O)CN2CCC(Cc3ccccc3)CC2)s1 | 29 (≈ 74.8 µM) | 29 (≈ 74.8 µM) | 28 (≈ 72.3 µM) | 25 (≈ 64.5 µM) | 12.5 (≈ 32.3 µM) | 12.5 (≈ 32.3 µM)
8 | CCOC(=O)c1sc(NC(=O)CN2CCC(Cc3ccccc3)CC2)nc1C | 35 (≈ 87.2 µM) | 50 (≈ 125 µM) | 70 (≈ 174 µM) | 75 (≈ 187 µM) | 50 (≈ 125 µM) | 50 (≈ 125 µM)
9 | Cc1csc(NC(=O)CN2CCC(Cc3ccccc3)CC2)n1 | 35 (≈ 106 µM) | 50 (≈ 152 µM) | 70 (≈ 212 µM) | 75 (≈ 228 µM) | 50 (≈ 152 µM) | 50 (≈ 152 µM)
10 | CCOC(=O)c1sc(NC(=O)CN2CCC(c3ccccc3)CC2)nc1C | 28 (≈ 72.3 µM) | 29 (≈ 74.8 µM) | 30 (≈ 77.4 µM) | 25 (≈ 64.5 µM) | 12.5 (≈ 32.3 µM) | 25 (≈ 64.5 µM)
11 | Cc1nc(NC(=O)CN2CCC(Cc3ccccc3)CC2)sc1C | 28 (≈ 81.5 µM) | 29 (≈ 84.4 µM) | 30 (≈ 87.3 µM) | 25 (≈ 72.8 µM) | 12.5 (≈ 36.4 µM) | 12.5 (≈ 36.4 µM)
12 | CCOC(=O)c1sc(NC(=O)CN2CCC(Cc3ccccc3)CC2)nc1-c1ccccc1 | 25 (≈ 53.9 µM) | 29 (≈ 62.6 µM) | 28 (≈ 60.4 µM) | 50 (≈ 108 µM) | 25 (≈ 53.9 µM) | 25 (≈ 53.9 µM)
13 | OC(Cn1cncn1)(Cn1cncn1)c1ccc(F)cc1F [FLUCONAZOLE] | – | – | – | 40 (≈ 131 µM) | 25 (≈ 81.6 µM) | 25 (≈ 81.6 µM)
14 | C[C@H]1COc2c(N3CCN(C)CC3)c(F)cc3c(=O)c(C(=O)O)cn1c23.C[C@H]1COc2c(N3CCN(C)CC3)c(F)cc3c(=O)c(C(=O)O)cn1c23.O [LEVOFLOXACIN] | 29 | 29 | 28 | – | – | –
15 | Clc1ccc(COC(Cn2ccnc2)c2ccc(Cl)cc2Cl)c(Cl)c1 (stereo unspecified) [MICONAZOLE] | – | – | – | 12.5 (≈ 30 µM) | 12.5 (≈ 30 µM) | 12.5 (≈ 30 µM)
